One series deals with STIM1 clustering. The settings on record: vascular smooth muscle cells; cited from earlier work.
The next series concerns the target endogenous TRPC1/5 (Homo sapiens, UniProt P48995+Q9UL62). The note with it: cited from earlier work.
Series [1] has as its system vascular smooth muscle cells. The note with it: cited from earlier work.
Another series deals with ICRAC (Homo sapiens, UniProt Q96D31). The settings on record: read-out: IC50 (ICRAC inhibition); cited from earlier work.
ICRAC, sequence (Q96D31 whole entry): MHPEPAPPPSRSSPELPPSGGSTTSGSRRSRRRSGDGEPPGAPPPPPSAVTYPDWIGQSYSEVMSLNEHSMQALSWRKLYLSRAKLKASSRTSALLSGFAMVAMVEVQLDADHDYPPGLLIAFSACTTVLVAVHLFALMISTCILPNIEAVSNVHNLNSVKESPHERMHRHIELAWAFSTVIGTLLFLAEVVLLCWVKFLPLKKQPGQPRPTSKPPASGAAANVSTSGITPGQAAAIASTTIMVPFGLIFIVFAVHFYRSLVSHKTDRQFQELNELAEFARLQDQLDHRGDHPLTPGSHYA
Series [2] is described as follows: Cytotoxicity, residual cell viability after 24 hours. In kind it is cell-based. The note with it: 10 μM.
Series [3] has as its system tBHQ-induced calcium influx into Hek cells (SOCE). Put plainly: Store-operated calcium entry (SOCE) by Fura-2 Ca2+ measurements in Hek cells. In kind it is cell-based, Human.
The test system of series [4] is T cell cytokine production. The settings on record: T cells; cited from earlier work.
Series [5] deals with T1, overexpressed TRPC5 channels (Homo sapiens, UniProt Q9UL62).
T1 sequence (Q9UL62 1-973): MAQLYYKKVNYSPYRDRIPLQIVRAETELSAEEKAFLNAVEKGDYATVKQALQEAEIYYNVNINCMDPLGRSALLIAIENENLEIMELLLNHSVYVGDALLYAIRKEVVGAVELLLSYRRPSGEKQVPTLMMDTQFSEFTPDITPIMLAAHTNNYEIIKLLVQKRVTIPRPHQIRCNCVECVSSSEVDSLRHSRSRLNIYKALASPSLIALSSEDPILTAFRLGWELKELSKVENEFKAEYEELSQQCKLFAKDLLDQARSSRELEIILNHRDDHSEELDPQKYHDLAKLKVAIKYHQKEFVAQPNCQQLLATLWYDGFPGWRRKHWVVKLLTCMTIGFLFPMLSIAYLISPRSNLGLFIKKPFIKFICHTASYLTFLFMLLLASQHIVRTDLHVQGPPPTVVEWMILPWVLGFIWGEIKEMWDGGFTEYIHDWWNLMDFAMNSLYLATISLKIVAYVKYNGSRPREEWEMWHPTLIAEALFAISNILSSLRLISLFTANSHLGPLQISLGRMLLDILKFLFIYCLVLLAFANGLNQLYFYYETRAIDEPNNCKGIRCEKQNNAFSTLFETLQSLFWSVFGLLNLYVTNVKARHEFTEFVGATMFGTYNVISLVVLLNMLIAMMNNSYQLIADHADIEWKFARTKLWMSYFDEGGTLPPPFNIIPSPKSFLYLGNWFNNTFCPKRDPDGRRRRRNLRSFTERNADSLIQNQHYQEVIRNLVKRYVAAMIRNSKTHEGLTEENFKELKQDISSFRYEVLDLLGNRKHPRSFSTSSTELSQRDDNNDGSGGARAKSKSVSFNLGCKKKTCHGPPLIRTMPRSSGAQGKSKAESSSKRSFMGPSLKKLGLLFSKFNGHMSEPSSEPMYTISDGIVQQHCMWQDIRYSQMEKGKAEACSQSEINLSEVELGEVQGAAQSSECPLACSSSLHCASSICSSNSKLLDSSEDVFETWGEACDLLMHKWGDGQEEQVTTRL
The note with it: cited from earlier work.

Series [6] has as its system metabotropic glutamate, muscarinic acetylcholine and GABA B receptors, GABA A, AMPA and NMDA receptors, tetrodotoxin-sensitive Na+ channels, N- and P/Q-type …. The note with it: cited from earlier work.

endogenous TRPC1/5, sequence (P48995 whole entry, one chain of several): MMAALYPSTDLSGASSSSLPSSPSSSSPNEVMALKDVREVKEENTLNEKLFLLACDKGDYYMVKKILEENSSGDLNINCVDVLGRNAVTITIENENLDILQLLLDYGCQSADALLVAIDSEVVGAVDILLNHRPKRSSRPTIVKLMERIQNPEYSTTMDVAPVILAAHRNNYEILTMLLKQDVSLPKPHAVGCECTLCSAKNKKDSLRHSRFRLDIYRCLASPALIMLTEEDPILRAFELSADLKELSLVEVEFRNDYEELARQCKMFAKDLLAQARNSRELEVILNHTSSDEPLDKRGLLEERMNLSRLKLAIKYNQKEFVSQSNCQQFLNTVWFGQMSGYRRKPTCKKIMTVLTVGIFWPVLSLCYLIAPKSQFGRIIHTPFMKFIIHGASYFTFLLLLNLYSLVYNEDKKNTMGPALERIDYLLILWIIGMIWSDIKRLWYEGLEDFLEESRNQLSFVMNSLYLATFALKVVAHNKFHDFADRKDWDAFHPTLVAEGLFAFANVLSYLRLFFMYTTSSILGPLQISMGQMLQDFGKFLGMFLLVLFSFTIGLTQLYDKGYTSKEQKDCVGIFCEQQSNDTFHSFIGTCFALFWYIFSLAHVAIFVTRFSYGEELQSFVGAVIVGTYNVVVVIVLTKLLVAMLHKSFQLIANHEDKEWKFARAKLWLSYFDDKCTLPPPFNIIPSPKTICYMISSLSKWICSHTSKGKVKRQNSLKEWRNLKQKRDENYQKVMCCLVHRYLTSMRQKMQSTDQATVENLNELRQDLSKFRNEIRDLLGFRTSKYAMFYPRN

One may read the IC50 as the midpoint of a concentration-inhibition curve. As for `COc1ccc(OC)c(-c2ccc(NC(=O)c3ccncc3F)cc2)c1` [Synta66, 3-fluoropyridine-4-carboxylic acid (2′,5′-dimethoxybiphenyl-4-yl)amide], in the series on STIM1 clustering, the “interference with STIM1 clustering” value is reported as “does not interfere with STIM1 clustering”. In addition, the “inhibition of endogenous TRPC1/5” value on endogenous TRPC1/5 was “does not inhibit”. The IC50 in series [1] is about 30 nM. At ICRAC, the IC50 was about 1000 nM. This compound came in with a residual cell viability in series [2] of 76%. In series [3], the “IC50 in inhibiting SOCE activity” value was “in the nanomolar range”. In series [4], the “production of IFN-gamma, IL-2 and IL-17” value is “inhibits the production”; the “production of IL-8” value is “but not of IL-8”. Further, in series [5], the “inhibition of overexpressed TRPC5 channels” value is “does not inhibit”. For the same compound, in [6], the “effect on receptors and ion channels (mGlu, muscarinic, GABA B, GABA A, AMPA, NMDA, TTX-sensitive Na+, N- and P/Q-type Ca2+ channels)” value is given as “does not affect”.

Values taken from patent US12655113B2, “Biphenyl compounds as SOCE modulators, compositions and uses thereof” (Università degli Studi del Piemonte Orientale “Amedeo …, priority 2020, dated 2026).
